Conditions: for log10 BCF / log10 biotransformation half-life (days): fish

Row | Structure (SMILES) | boiling point [°C] | melting point [°C] | other results
1 | CC(=O)c1ccsc1 | 210 | 60 | –
2 | Oc1cc(Cl)ccc1Oc1ccc(Cl)cc1Cl | – | 55.6 | ready biodegradability: not readily biodegradable; log10 BCF: 1.72
3 | ClC1OCCOC1Cl (configuration not stated) | – | 30 | –
4 | CC(C)COCCOCCO | 217 | – | –
5 | C#CCCCO | 154 | – | –
6 | Clc1cc(Cl)c2c(c1)Oc1cc(Cl)c(Cl)cc1O2 | – | 194 | log10 vapour pressure (mmHg): -8.2
7 | Oc1ccc2ccccc2c1/N=N/c1ccc(/N=N\c2ccccc2)cc1 | – | 195 | –
8 | CC(C)(C)OC(=O)C(F)(F)F | 83 | – | –
9 | CCCCCC(=O)O[C@]1(C(C)=O)CC[C@H]2[C@@H]3CCC4=CC(=O)CC[C@@H]4[C@H]3CC[C@@]21C | – | 124 | –
10 | Clc1ccc2oc3c(Cl)c(Cl)c(Cl)c(Cl)c3c2c1 | – | 178 | log10 vapour pressure (mmHg): -8.44
11 | CC(C)OC(=O)C(C)(C)Oc1ccc(C(=O)c2ccc(Cl)cc2)cc1 | – | 80.5 | –
12 | CCCCCCCCc1ccccc1Nc1ccccc1CCCCCCCC | – | – | ready biodegradability: not readily biodegradable
13 | CC(C(=O)O)c1cccc(C(=O)c2ccccc2)c1 (configuration not stated) | – | 94 | –
14 | Clc1ccc(Cl)c(-c2ccccc2)c1Cl | – | – | log10 Henry constant (atm·m³/mol): -3.66
15 | OCC(F)(F)C(F)(F)C(F)(F)C(F)(F)C(F)(F)C(F)(F)C(F)(F)C(F)(F)C(F)(F)C(F)F | – | – | ready biodegradability: not readily biodegradable
16 | O=C(Nc1ccccc1)NC1CC1 | – | – | log10 Koc (L/kg): 1.74
17 | CC(Cc1ccc(O)c(O)c1)C(C)Cc1ccc(O)c(O)c1 (configuration not stated) | – | 186 | –
18 | Cc1c[nH]c2ccccc12 | 266 | 97.5 | log10 vapour pressure (mmHg): -2.26
19 | Clc1ccc(Oc2ccc(Cl)cc2)cc1 | 313 | 30 | log10 vapour pressure (mmHg): -3.3
20 | COC(=O)c1ccc2c(c1)OCO2 | – | 53 | –
21 | N#CCN(CC#N)CCN(CC#N)CC#N | – | 128 | –
22 | CC(Br)C(C)(Br)Br (configuration not stated) | 206 | 1.8 | –
23 | CC(CCl)CBr (configuration not stated) | 155 | – | –

Row | Structure (SMILES) | boiling point [°C] | melting point [°C] | other results
24 | CCCCCCCCCCCCCCC(C)O (configuration not stated) | 314 | 44 | –
25 | CN(C)c1nc(N(C)C)nc(N(C)C)n1 | – | 173 | –
26 | FC(F)(F)c1ccc2c(c1)Nc1ccccc1S2 | – | 189 | –
27 | C[C@H]1[C@H](C)CC[C@]2(C)CC[C@]3(C)C(=CC[C@@H]4[C@@]5(C)CC[C@H](O)C(C)(C)[C@@H]5CC[C@]43C)[C@H]12 | – | 186 | –
28 | COc1cc(C(=O)NCCCCCC(=O)O)cc(OC)c1OC | – | 122 | –
29 | NC(=O)c1cc(Cl)cc(Cl)c1N | – | 162 | –
30 | C=Cc1ccco1 | 99.5 | -94 | –
31 | O=C1C(Cl)=C(NC(=O)C(Cl)Cl)C(=O)c2ccccc21 | – | 212 | –
32 | Oc1ccc(O)c(O)c1 | – | 140 | –
33 | Nc1c(Cl)cc([N+](=O)[O-])cc1[N+](=O)[O-] | – | – | ready biodegradability: not readily biodegradable
34 | COC(=O)Nc1ccccc1 | – | – | log10 Koc (L/kg): 1.73
35 | CC(C)C(=O)O | 154 | -46 | log10 Henry constant (atm·m³/mol): -6.05; log10 vapour pressure (mmHg): 0.258; ready biodegradability: readily biodegradable
36 | C1=COCCO1 | 94.1 | – | –
37 | C1=CCCCCCC1 | – | -12 | –
38 | CN1CCc2cc3c(cc2C1)OCO3 | 304 | 66 | –
39 | O=C(O)c1cc(Br)ccc1Br | – | 157 | –
40 | C=Cc1ccccc1OC | 197 | 29 | –
41 | Brc1ccc2c(c1)Oc1ccccc1O2 | – | 90 | log10 vapour pressure (mmHg): -4.52
42 | COc1cc(OC)cc(C(=O)O)c1 | – | 186 | log10 vapour pressure (mmHg): -6.86
43 | CC(C)C=CC(C)C | – | – | log10 vapour pressure (mmHg): 1.64
44 | BrCCCCCCCBr | 263 | 41.7 | –
45 | CC(C)CC(=O)OC(=O)CC(C)C | 215 | – | –
46 | CC(=O)O[C@@H](C(=O)O)c1ccccc1 | – | 97 | –

Row | Structure (SMILES) | boiling point [°C] | melting point [°C] | other results
47 | CCN1C(=O)c2ccccc2C1Nc1ccc(OCCN2CCCCC2)cc1 (configuration not stated) | – | 106 | –
48 | CCC(Br)(CC)C(=O)NC(N)=O | – | 118 | –
49 | OCc1c2ccccc2cc2ccccc12 | – | – | log10 Koc (L/kg): 3.61
50 | CCCCCCCCCCCCCC=O | 260 | 20.5 | –
51 | CC(C)(I)I | 173 | – | –
52 | CCOC(=O)C(CC)C(C)=O (configuration not stated) | 198 | – | –
53 | O=C(O)c1ccnc(C(=O)O)c1C(=O)O | – | 250 | –
54 | Brc1c(Br)c(Br)c(Oc2c(Br)c(Br)c(Br)c(Br)c2Br)c(Br)c1Br | 530 | 295 | ready biodegradability: not readily biodegradable; log10 biotransformation half-life (days): 1.16
55 | OCc1ccc(CO)cc1 | – | 118 | –
56 | CC(C(=O)O)c1ccc(N2Cc3ccccc3C2=O)cc1 (configuration not stated) | – | 214 | –
57 | c1ccc2cc3ccccc3cc2c1 | 340 | 215 | log10 Henry constant (atm·m³/mol): -4.25; log10 Koa: 7.55; log10 Koc (L/kg): 4.31; log10 biodegradation half-life (days): 2.09; log10 vapour pressure (mmHg): -5.19; ready biodegradability: not readily biodegradable; log10 BCF: 3.26; log10 biotransformation half-life (days): 0.65
58 | CNC1=Nc2ccc(Cl)cc2C(c2ccccc2)=[N+]([O-])C1 | – | 236 | –
59 | C=CCCCCCC | 121 | -102 | log10 Koa: 3.35; log10 vapour pressure (mmHg): 1.24
60 | Cc1ccc(NC(=O)N(C)C)cc1 | – | – | log10 Koc (L/kg): 1.51
61 | CC(C)CCC[C@@H](C)[C@H]1CC[C@H]2[C@@H]3CC=C4C[C@@H](OC(=O)Cc5ccc(N(CCCl)CCCl)cc5)CC[C@]4(C)[C@H]3CC[C@]12C | – | 90 | –
62 | C=CC(C)(O)CCC=C(C)C (configuration not stated) | 198 | – | log10 Henry constant (atm·m³/mol): -4.67; log10 vapour pressure (mmHg): -0.796; ready biodegradability: readily biodegradable
63 | FC(F)(F)Cl | -81.4 | -181 | log10 Henry constant (atm·m³/mol): 0.14; log10 vapour pressure (mmHg): 4.33
64 | CCCCCCC(C)CCC (configuration not stated) | 187 | -77.5 | –
65 | Oc1ccc2cccc(O)c2c1 | – | 180 | –
66 | Oc1cc(O)cc(-c2cc(O)cc(O)c2)c1 | – | 310 | –
67 | Cc1cc(C)cc(CO)c1 | 220 | – | –
68 | O=C(OOC(=O)c1ccc(Cl)cc1Cl)c1ccc(Cl)cc1Cl | – | 106 | ready biodegradability: not readily biodegradable
69 | C=CC1=CCCCC1 | 145 | – | –

Row | Structure (SMILES) | boiling point [°C] | melting point [°C] | other results
70 | O=C(NCO)c1cccnc1 | – | 142 | –
71 | CC(C)c1cccc(C(C)C)c1O | 256 | 18 | ready biodegradability: not readily biodegradable
72 | Cc1ccc2ccccc2c1 | 241 | 34.4 | log10 Henry constant (atm·m³/mol): -3.29; log10 Koc (L/kg): 3.6; log10 biodegradation half-life (days): 1.15; log10 vapour pressure (mmHg): -1.26; log10 BCF: 1.87; log10 biotransformation half-life (days): 0.88
73 | O=C1CCCCCCCN1 | – | 78 | –
74 | CCSc1ccccc1 | 205 | – | –
75 | C1CSCSC1 | – | 54 | –
76 | CCC[Si](Cl)(Cl)Cl | 124 | – | log10 vapour pressure (mmHg): 1.46
77 | Cc1cccc(C)c1C | 176 | -25.4 | log10 Henry constant (atm·m³/mol): -2.36; log10 Koc (L/kg): 2.8; log10 biodegradation half-life (days): 0.602; log10 vapour pressure (mmHg): 0.228; ready biodegradability: not readily biodegradable; log10 BCF: 2.29; log10 biotransformation half-life (days): -0.22
78 | CC(C)CC(C)CC(O)CC(C)C (configuration not stated) | 225 | – | –
79 | CCCCCCCCN(C)CCCCCCCC | – | -30.1 | –
80 | O=CF | -26.5 | -142 | log10 vapour pressure (mmHg): 3.46
81 | CCCCCCCCCCC(=O)CC | – | 31 | –
82 | O=[N+]([O-])OC(CO)CO | 158 | 54 | –
83 | [Se]=C=[Se] | 126 | -45.5 | –
84 | Brc1ccc(Oc2ccccc2)cc1Br | – | – | log10 Koa: 8.55
85 | O=[N+]([O-])c1cc(C2CCCCC2)c(O)c([N+](=O)[O-])c1 | – | 107 | –
86 | CCC(C)CC(C)=O (configuration not stated) | 144 | – | –
87 | CCCCCCCCCCCCCCCCCC(=O)OCC | – | 33 | log10 vapour pressure (mmHg): -5.59
88 | Cc1cccnc1 | 144 | -18.1 | log10 Henry constant (atm·m³/mol): -5.11; log10 vapour pressure (mmHg): 0.782; ready biodegradability: not readily biodegradable
89 | O=C(Cl)CCCC(=O)Cl | 217 | – | log10 vapour pressure (mmHg): -0.932
